Reference: patent publication EP0409227A2, “Pyrimidine nucleosides, their preparation and pharmaceutical preparations” (MATTHES, Eckart, Dr., priority 1989, dated 1991)
Like-named read-outs stand apart in the source and are kept apart here.

Experiments:
[1] = test system: HBsAg-Sekretion von Hep G2 (2.2.15)-Zellen; assay: Inhibition of HBsAg secretion of Hep G2 (2.2.15) cells (solid-phase radioimmunoassay of the medium); format: cell-based, HBV
Protocol: (§1) Die Testung der antiviralen Wirksamkeit der Nucleoside auf zelluärer Ebene erfolgte an einer menschlichen Hepatoblastom-Zellinie, die mit dem HBV-Genom tranfiziert wurde und sowohl das Oberflächenantigen des Virus (HBsAg) als auch die HBV-DNA permanent produziert und infektiöse Viruspartikel in das Medium abgibt (Hep G2-Zellen, Klon 2.2.15, Sells et al. Proc.Natl.Acad. Sci. 84, 1005 (1987)). Die Zellen (5x10⁵/ml) wurden in RPMI 1640-Medium mit 2 mM Glutamin und 10% fetalem Kälberserum allein oder zusammen mit den Nucleosid-Analoga für 4 Tage inkubiert, danach wurden den Ansätzen für 24 Stunden ³H-Thymidin bzw. ³H-Desoxyadenosin (3 µCi/ml) zugesetzt, die Zellen abzentrifugiert und darin die säureunlösliche Radioaktivität und damit der Einfluß auf die DNA-Synthese bestimmt. Im Inkubationsmedium wurde das HBsAg durch Festphasenradioimmunoassay (Travenol-Genentech Diagnostics, Cambridge, MA) entsprechend den Instruktionen des Herstellers ermittelt. Die Tabelle 4 faßt die Ergebnisse zusammen, die belegen, daß die getesteten Verbindungen hochwirksame und selektive Hemmstoffe der HBV-Vermehrung sind.

Hep G2 (2.2.15)-Zellen = assay: DNA synthesis of Hep G2 (2.2.15) cells (acid-insoluble radioactivity after 3H-thymidine or 3H-deoxyadenosine); format: cell-based, menschlichen; details: 4 days, then 24 h label, mean ± SD of five experiments
Protocol: as §1

HBV-Polymerase = target: T1, HBV-Polymerase (Hepatitis B virus genotype D subtype ayw, UniProt P03156); assay: Inhibition of HBV polymerase activity by nucleoside triphosphate analogues (method of Kaplan et al.); format: biochemical
T1 construct: Es wurde zunächst die Hemmbarkeit der HBV-assoziierten Polymerase; host or cells: virus-associated endogenous polymerase
T1 sequence (P03156 whole entry): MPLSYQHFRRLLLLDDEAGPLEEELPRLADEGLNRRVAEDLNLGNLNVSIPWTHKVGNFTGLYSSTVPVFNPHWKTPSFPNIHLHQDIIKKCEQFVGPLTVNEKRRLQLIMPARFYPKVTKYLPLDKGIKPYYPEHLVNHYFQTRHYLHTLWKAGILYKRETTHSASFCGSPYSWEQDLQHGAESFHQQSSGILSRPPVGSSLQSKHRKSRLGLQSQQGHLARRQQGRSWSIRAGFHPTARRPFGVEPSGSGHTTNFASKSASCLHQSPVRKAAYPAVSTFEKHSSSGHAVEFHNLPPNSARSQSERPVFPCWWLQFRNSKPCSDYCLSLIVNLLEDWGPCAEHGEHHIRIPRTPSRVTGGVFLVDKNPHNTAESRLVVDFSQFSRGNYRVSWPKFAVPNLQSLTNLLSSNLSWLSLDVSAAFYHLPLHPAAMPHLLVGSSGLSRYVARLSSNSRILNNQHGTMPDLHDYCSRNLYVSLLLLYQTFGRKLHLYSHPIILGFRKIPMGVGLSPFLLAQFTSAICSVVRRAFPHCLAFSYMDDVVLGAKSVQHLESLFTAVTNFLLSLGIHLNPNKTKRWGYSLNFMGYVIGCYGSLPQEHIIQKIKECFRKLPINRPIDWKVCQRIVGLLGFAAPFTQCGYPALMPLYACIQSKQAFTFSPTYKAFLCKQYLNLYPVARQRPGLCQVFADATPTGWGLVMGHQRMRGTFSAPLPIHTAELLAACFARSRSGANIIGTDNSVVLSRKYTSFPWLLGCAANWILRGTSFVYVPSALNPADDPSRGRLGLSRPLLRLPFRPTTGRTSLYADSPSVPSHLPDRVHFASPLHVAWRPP
From the text: Das Hepatitis B Virus (HBV) besitzt eine zirkuläre, partiell doppelsträngige DNA, welche nach Infektion einer Leberzelle durch eine viruseigene Polymerase repliziert wird. Dieser Vorgang setzt jedoch die Synthese einer RNA durch eine zelluläre RNA-Polymerase voraus. Nur diese RNA-Matrize - im Zusammenhang mit der Replikation auch als Prägenom bezeichnet - kann von der HBV-Polymerase für die Synthese zunächst eines RNA-DNA Hybrids und dann der doppelsträngigen DNA benutzt werden. Damit verfügt die HBV-Polymerase über eine enzymatische Aktivität, die der einer reversen Transcriptase ähnelt (Will et al., J.Virology 61, 904 (1987)). Es wurde zunächst die Hemmbarkeit der HBV-assoziierten Polymerase durch die 5′-Triphosphate der erfindungsgemäßen Verbindungen untersucht. Dazu wurde die von Kaplan et al. (J.Virology 12, 995 (1973)) angegebene Methode zur Bestimmung der HBV-Polymerase benutzt, wobei die zu testenden Triphosphate den Ansätzen in verschiedenen Konzentrationen zugesetzt wurden. Die Hemmung der Enzymreaktion wurde nach 3-stündiger Inkubation bei 37 °C durch Vergleich mit einem Kontrollwert ermittelt und daraus die Konzentration der zugesetzten Analoga bestimmt, die zu einer 50 %igen Hemmung der HBV-Polymerase-Aktivität führt (ID₅₀). Tabelle 1 zeigt die Ergebnisse, wobei insbesondere 2′,3′-Didesoxy-3′-fluor-5-methylcytidin durch einen Wert ID₅₀ von 0,03 µM herausragt und damit zu den stärksten bisher bekannten Hemmstoffen der HBV-Polymerase zu rechnen ist. Tabelle 1

[2] = nucleoside 0,01 µM, 4 days + 24 h, mean ± SD of five experiments
[3] = nucleoside 0,1 µM, 4 days + 24 h, mean ± SD of five experiments
[4] = nucleoside 0,01 µM, % of control without nucleoside (100)
[5] = nucleoside 0,1 µM, % of control without nucleoside (100)
[6] = nucleoside 0,03 µM, 4 days + 24 h, mean ± SD of five experiments
[7] = nucleoside 0,3 µM, 4 days + 24 h, mean ± SD of five experiments
[8] = nucleoside 0,03 µM, % of control without nucleoside (100)
[9] = nucleoside 0,3 µM, % of control without nucleoside (100)
[10] = nucleoside 0,003 µM, 4 days + 24 h, mean ± SD of five experiments
[11] = nucleoside 0,003 µM, % of control without nucleoside (100)
[12] = nucleoside 1,0 µM, 4 days + 24 h, mean ± SD of five experiments
[13] = nucleoside 1,0 µM, % of control without nucleoside (100)
[14] = nucleoside 3,0 µM, 4 days + 24 h, mean ± SD of five experiments
[15] = nucleoside 3,0 µM, % of control without nucleoside (100)

Structure (SMILES) | HBsAg [1, 2] | HBsAg [1, 3] | HBsAg [1, 4] [%] | HBsAg [1, 5] [%] | HBsAg [1, 6] | HBsAg [1, 7] | HBsAg [1, 8] [%] | HBsAg [1, 9] [%] | HBsAg [1, 10] | HBsAg [1, 11] [%] | HBsAg [1, 12] | HBsAg [1, 13] [%] | HBsAg [1, 14] | HBsAg [1, 15] [%] | ^3H-DNA (Hep G2 (2.2.15)-Zellen; nucleoside 0,01 µM) [dpm/Kultur] | ^3H-DNA (Hep G2 (2.2.15)-Zellen; nucleoside 0,1 µM) [dpm/Kultur] | ^3H-DNA (Hep G2 (2.2.15)-Zellen; nucleoside 0,03 µM) [dpm/Kultur] | ^3H-DNA (Hep G2 (2.2.15)-Zellen; nucleoside 0,3 µM) [dpm/Kultur] | ^3H-DNA (Hep G2 (2.2.15)-Zellen; nucleoside 0,003 µM) [dpm/Kultur] | ^3H-DNA (Hep G2 (2.2.15)-Zellen; nucleoside 1,0 µM) [dpm/Kultur] | also measured
Nc1ccn([C@H]2C=C[C@@H](CO)O2)c(=O)n1 [2',3'-Didehydro-2',3'-didesoxycytidin] | 12,1 ± 1,6 ng/ml | 0,8 ± 0,2 ng/ml | 69 | 5 | 5,8 ± 1,2 ng/ml | 0,4 ± 0,2 ng/ml | 33 | 2 | 18,7 ± 2,8 ng/ml | 107 | < 0,1 ng/ml | < 1 | < 0,1 ng/ml | < 1 | 18410 ± 1895 | 19930 ± 1830 | 15685 ± 1740 | 14270 ± 1655 | 17940 ± 1865 | 12350 ± 1310 | ^3H-DNA (Hep G2 (2.2.15)-Zellen; nucleoside 3,0 µM): 6535 ± 790 dpm/Kultur
Nc1nc2c(ncn2[C@H]2C[C@H](F)[C@@H](COP(=O)(O)OP(=O)(O)OP(=O)(O)O)O2)c(=S)[nH]1 [2′,3′-Didesoxy-3′-fluor-6-thioguanosin-5′-triphosphat] | – | – | – | – | – | – | – | – | – | – | – | – | – | – | – | – | – | – | – | – | IC50 (HBV-Polymerase): 0.5 µM
Nc1nc(N)c2ncn([C@H]3C[C@H](F)[C@@H](CO)O3)c2n1 [2',3'-Didesoxy-3'-fluor-2,6-diaminopurinribosid] | 3,2 ± 0,6 ng/ml | < 0,1 ng/ml | 18 | < 1 | 2,0 ± 0,5 ng/ml | < 0,1 ng/ml | 11 | < 1 | 15,9 ± 2,7 ng/ml | 91 | < 0,1 ng/ml | < 1 | < 0,1 ng/ml | < 1 | 16820 ± 1775 | 19990 ± 1820 | 17265 ± 1895 | 15125 ± 1795 | 19535 ± 1835 | 18885 ± 1950 | ^3H-DNA (Hep G2 (2.2.15)-Zellen; nucleoside 3,0 µM): 17740 ± 1670 dpm/Kultur
Nc1ncc2ncn([C@H]3C[C@H](F)[C@@H](COP(=O)(O)OP(=O)(O)OP(=O)(O)O)O3)c2n1 [2′,3′-Didesoxy-3′-fluor-2-aminopurinribosid-5′-triphosphat] | – | – | – | – | – | – | – | – | – | – | – | – | – | – | – | – | – | – | – | – | IC50 (HBV-Polymerase): 0.6 µM
Nc1nc2c(ncn2[C@H]2C[C@H](N)[C@@H](COP(=O)(O)OP(=O)(O)OP(=O)(O)O)O2)c(=O)[nH]1 [2′,3′-Didesoxy-3′-aminoguanosin-5′-triphosphat] | – | – | – | – | – | – | – | – | – | – | – | – | – | – | – | – | – | – | – | – | IC50 (HBV-Polymerase; 50 % inhibition of HBV polymerase activity, 3 h incubation at 37 °C, read-out: ID₅₀): 4 µM
CCc1cn([C@H]2C[C@H](F)[C@@H](CO)O2)c(=O)nc1N [2',3'-Didesoxy-3'-fluor-5-ethylcytidin] | 8,2 ± 0,8 ng/ml | 0,6 ± 0,1 ng/ml | 42 | 3 | 2,6 ± 0,6 ng/ml | < 0,1 ng/ml | 13 | < 1 | 16,7 ± 2,6 ng/ml | 87 | < 0,1 ng/ml | < 1 | < 0,1 ng/ml | < 1 | 13855 ± 1945 | 15245 ± 1655 | 14570 ± 1695 | 14130 ± 1940 | 14020 ± 1780 | 9850 ± 1230 | ^3H-DNA (Hep G2 (2.2.15)-Zellen; nucleoside 3,0 µM): 6640 ± 965 dpm/Kultur
Cc1cn([C@@H]2O[C@H](CO)[C@@H](O)[C@@H]2O)c(=O)nc1N [Arabinosyl-5-methyl-cytosin, 1-β-D-Arabinofuranosyl-5-methylcytosin] | 12,4 ± 1,2 ng/ml | 3,6 ± 0,5 ng/ml | 71 | 21 | 10,3 ± 1,2 ng/ml | 0,6 ± 0,3 ng/ml | 59 | 3 | 16,8 ± 1,7 ng/ml | 96 | < 0,1 ng/ml | < 1 | < 0,1 ng/ml | < 1 | 17990 ± 1635 | 16225 ± 1825 | 19075 ± 1905 | 18600 ± 1865 | 17755 ± 1750 | 12415 ± 1070 | ^3H-DNA (Hep G2 (2.2.15)-Zellen; nucleoside 3,0 µM): 8470 ± 935 dpm/Kultur
